Data taken from patent US20240262817A1, “QUINAZOLINE DERIVATIVES TARGETING R(CCUG) REPEATS IN MYOTONIC DYSTROPHY TYPE 2” (University of Florida Research Foundation, Incorporated, priority 2021, published 2024).

Columns and labels:
[1] = tested on: CNBP mature mRNA in DM2 patient-derived fibroblasts; experiment: CNBP mature mRNA levels via RT-qPCR in DM2 fibroblasts; type: cell-based
Method: (§1) Cell lines and cell culture: Compounds were tested in two cell lines: (i) DM2 patient-derived fibroblasts (generous gift from University of Florida, Center for NeuroGenetics) and (ii) fibroblasts from a healthy donor (wild-type; WT GM07492; Coriell Institute). Cells were maintained at 37° ° C. with 5% CO2. DM2 fibroblasts were cultured in DMEM/high glucose (HyClone) supplemented with 20% FBS (Sigma) and 1% Antibiotic-Antimycotic solution (Corning). Wild-type fibroblasts were cultured in MEM (Corning) supplemented with 10% FBS, 1% Glutagro (Corning), and 1% Antibiotic-Antimycotic solution.
(§2) Evaluation of CNBP abundance via RT-qPCR: CNBP abundance was evaluated as previously described.^10 Briefly, cells were grown in 6-well plates and treated with the desired compound in growth medium at 40% confluency. […] Approximately 1 μg of total RNA was reverse transcribed using a qScript cDNA synthesis kit (20 μL total reaction volume, Quanta BioSciences); 2 μL of the reverse transcription (RT) reaction was used for each primer pair (Table S1) for quantitative PCR with SYBR Green Master Mix, performed on a QuantStudio 5, 384-well Block Real-Time PCR System (Applied Biosciences). Relative abundance was determined by normalizing to GAPDH (n=6 replicates per concentration; 2 independent experiments).

[2] = tested on: CNBP intron 1 in DM2 patient-derived fibroblasts; experiment: CNBP intron 1 abundance via RT-qPCR in DM2 fibroblasts; type: cell-based; set-up: dose or concentration left out as unconfirmed
Method: as §1, §2

[3] = tested on: IR exon 11 alternative splicing in DM2 patient-derived fibroblasts; experiment: Rescue of IR exon 11 splicing via RT-PCR in DM2 fibroblasts; type: cell-based
Method: as §1
Evaluation of pre-mRNA splicing via RT-PCR: Pre-mRNA splicing was analyzed as previously described.^10 Briefly, cells were grown in 6-well plates and treated with the desired compound in growth medium at ˜40% confluency. After 48 h, the cells were lysed, and total RNA was harvested using a Zymo Quick RNA Miniprep Kit. Approximately 1 μg of total RNA was reverse transcribed using a qScript cDNA synthesis kit (20 μL of total reaction volume, Quanta BioSciences); 2 μL of the RT reaction was used for PCR using GoTaq DNA polymerase (Promega). RT-PCR products were observed after 35 cycles of 95° C. for 30 s, 58° C. for 30s, 72 °C for 1 min, and a final extension at 72° C. for 5 min. Products were separated on a 2% agarose gel (110 V for 1 h in 13TBE buffer), visualized by staining with ethidium bromide, and imaged using a Typhoon 9410 variable mode imager. Gels were quantified using ImageJ. Percent rescue was calculated by dividing the difference between treated and untreated DM2 samples by the difference between untreated DM2 and WT samples (Equation 2).

r(CCUG)12-MBNL1 complex = experiment: TR-FRET assay, disruption of pre-formed r(CCUG)12-MBNL1 complex; type: biochemical; conditions: in vitro, read-out: IC50 for disrupting an r(CCUG)12-MBNL1 complex
Description: Of the 44 hits, 38 contained a similar substituted N2-phenylquinazoline-2,4-diamine core, while the other hits contained benzimidazoles and indazoles (Figure S2). Importantly, these 44 compounds are drug-like as they have similar physicochemical properties to the rest of the library and to known-drugs in Drug Bank (FIG. 2A). On average, the 44 hit compounds have a molecular weight of 327±35 g/mol, a cLogP of 3.2±0.9. TPSA of 76±15 Å, and 2.5±0.9 hydrogen bond donors. The in vitro potencies (IC50s) of the 44 compounds were then measured in the TR-FRET assay, affording seven compounds (1-7) with IC50s <50 μM (highlighted in red in FIGS. 2B & 2C).
In vitro IC50 measurements: IC50 measurements for disruption of r(CCUG)12-MBNL1 complex was completed using a previously reported TR-FRET assay with minor modifications.^23, 24 Briefly, 5′-biotinylated r(CCUG)12 (SEQ ID NO: 15) was folded in 1× Folding Buffer (20 mM HEPES, pH 7.5, 110 mM KCl, and 10 mM NaCl) at 60° C. for 5 min then cooled to room temperature. The buffer was adjusted to 1× Assay Buffer (20 mM HEPES, pH 7.5, 110 mM KCl, 10 mM NaCl, 2 mM MgCl2, 2 mM CaCl2), 5 mM DTT. 0.1% BSA, and 0.5% Tween-20).
Next, MBNL1-His6 was added, and the samples were incubated at room temperature for 15 min. […] The samples were incubated for 30 min at room temperature and added to a white 384-well plate, where TR-FRET was measured on a Molecular Devices SpectraMax M5 plate reader using an excitation wavelength of 345-nm and a 420-nm cutoff. The ratios of fluorescence intensity at 545 and 665 nm were calculated, and ratios in the absence of a compound and in the absence of RNA were used to calculate percent disruption. […]
[formula] • where y is ratio of fluorescence intensities at 545 nm and 665 nm (F545/F665), x is the concentration of a compound, B is F545/F665 value at max FRET effect (solution has RNA and protein but no compound added); A is F545/F665 value at min FRET effect (solution has antibodies but no RNA, protein, or compound); and the IC50 is the concentration of a compound where half of the protein is displaced by a compound.

## Cc1ccc2nc(Nc3ccc4nc(C)sc4c3)nc(NCCCO)c2c1 [Compound 63, 3-((6-methyl-2-((2-methylbenzo[d]thiazol-6-yl)amino)quinazolin-4-yl)amino)propan-1-ol]
[1]
  levels of CNBP mature mRNA: did not affect
[2]
  abundance of CNBP intron 1: significantly reduced
[3]; at 1 μM
  rescue of IR exon 11 splicing: ~30%
[3]; at 1 μM dose, p=0.026
  rescue of IR splicing: 33±5
[3]; at 5 μM
  improvement of IR splicing: significantly improved IR splicing
r(CCUG)12-MBNL1 complex
  IC50: 2200 ± 500 nM
